# Columns and labels:
# [1] = tested on: Chorioallantoic membrane; experiment: Inhibition of angiogenesis in chick embryo chorioallantoic membranes; type: functional; conditions: Gallus gallus
# [2] = Antiangiogenic activity against bFGF-indeced mouse KOP2.16 cells assessed as reduction in cell growth at 10 uM; type: functional
# [3] = tested on: Mus musculus; experiment: Antiinflammatory activity in mouse assessed as inhibition of TPA-induced ear edema measured per ear; type: functional
# [4] = tested on: Osteoclast; experiment: Inhibition of osteoporotic lesion formation in ICR mouse osteoclasts bone cells using ivory pieces after 2 days by pit formation assay; type: functional, cell-based; conditions: 48 h
# [5] = Antioxidant activity in human RBC assessed as inhibition of hydrogen peroxide-induced hemolysis after 3 hrs; type: functional, cell-based; conditions: erythrocyte
# [6] = tested on: Radical scavenging activity; experiment: Antioxidant activity assessed as DPPH radical scavenging activity; type: functional
# [7] = Antioxidant activity assessed as inhibition of lipid peroxidation; type: functional
# [8] = tested on: U-937; experiment: Antiproliferative activity against human U937 cells
# [9] = target: T1, Prostaglandin G/H synthase 2 (Mus musculus, UniProt Q05769); experiment: Inhibition of COX2-mediated PGE2 production in TNF-alpha-induced mouse MC3T3-E1 cells
# T1 sequence (Q05769 whole entry): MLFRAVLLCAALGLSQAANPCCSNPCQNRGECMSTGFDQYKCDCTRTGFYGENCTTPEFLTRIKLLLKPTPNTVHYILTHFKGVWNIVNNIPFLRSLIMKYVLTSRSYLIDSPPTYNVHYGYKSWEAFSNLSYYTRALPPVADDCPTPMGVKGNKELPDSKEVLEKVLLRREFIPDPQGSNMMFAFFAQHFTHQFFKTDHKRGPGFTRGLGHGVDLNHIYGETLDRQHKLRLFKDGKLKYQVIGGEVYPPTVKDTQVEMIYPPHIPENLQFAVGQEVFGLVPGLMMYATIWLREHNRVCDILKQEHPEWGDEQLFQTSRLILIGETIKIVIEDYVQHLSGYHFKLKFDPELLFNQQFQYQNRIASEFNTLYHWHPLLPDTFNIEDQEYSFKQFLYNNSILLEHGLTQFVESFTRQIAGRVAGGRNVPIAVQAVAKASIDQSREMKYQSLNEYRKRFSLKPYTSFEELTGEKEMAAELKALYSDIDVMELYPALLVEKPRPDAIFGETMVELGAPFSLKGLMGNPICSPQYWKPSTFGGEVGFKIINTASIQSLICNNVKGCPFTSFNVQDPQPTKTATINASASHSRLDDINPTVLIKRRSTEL
# [10] = tested on: Mus musculus; experiment: Antiangiogenic activity in mouse at 0.01%, po for 21 days; type: functional
smiles,measurement,setting,value
CC(C)=CCC1C(=O)C(C(=O)CC(C)C)=C(O)C(O)(CC=C(C)C)C1=O (centres undefined) [HUMULONE],ED50,[1],1.5 µg
same,inhibition at 10 µM,[2],20%
same,ID50,[3],0.2 mg
same,IC50,[4],0.0059 µM
same,IC50,[5],28 µM
same,IC50,[6],32 µM
same,IC50,[7],7.9 µM
same,IC50,[8],3.4 µM
same,IC50,[9],0.03 µM
C[C@]12CCC(=O)C=C1CC[C@@H]1[C@@H]2[C@@H](O)C[C@@]2(C)[C@H]1CC[C@]2(O)C(=O)CO [HYDROCORTISONE],ID50,[3],0.03 mg
COc1ccc2c(c1)c(CC(=O)O)c(C)n2C(=O)c1ccc(Cl)cc1 [INDOMETHACIN],ID50,[3],0.3 mg
CC(C)=CCC1=C(O)C(C(=O)CC(C)C)=C(O)C(CC=C(C)C)(CC=C(C)C)C1=O [LUPULONE],inhibition (INH),[10],50%
same,IC50,[6],25 µM
same,IC50,[7],39 µM
